Results on five compounds are retold here after ChEMBL document CHEMBL1944514, “Fluorescence detection of single nucleotide polymorphisms using nucleic acid probe containing tricyclic base-linked acyclonucleoside” (Bioorg Med Chem Lett, 2012).

Common to all, as to type: nucleic-acid assay
In assay [1] the test system is Nucleic Acid. Kind of assay: Binding affinity to 3'-r(CUUCCAGUUUCAUAGAGA)-5' RNA assessed as change in melting temperature by spectrophotometry.
The test system of assay [2] is Nucleic Acid. Kind of assay: Binding affinity to 3'-r(CUUCCAGUUCCAUAGAGA)-5' RNA assessed as fluorescence quenching by spectrophotometry.
Assay [3] concerns Nucleic Acid. Kind of assay: Binding affinity to 3'-r(CUUCCAGUUACAUAGAGA)-5' RNA assessed as change in melting temperature by spectrophotometry.
Assay [4] has as its system Nucleic Acid. Kind of assay: Binding affinity to 3'-r(CUUCCAGUUACAUAGAGA)-5' RNA assessed as fluorescence quenching by spectrophotometry.
For assay [5], the system named is Nucleic Acid. In words: Binding affinity to 3'-r(CUUCCAGUUGCAUAGAGA)-5' RNA assessed as change in melting temperature by spectrophotometry.
The subject of assay [6] is Nucleic Acid. Kind of assay: Binding affinity to 3'-r(CUUCCAGUUCCAUAGAGA)-5' RNA assessed as change in melting temperature by spectrophotometry.
The subject of assay [7] is Nucleic Acid. In words: Binding affinity to 3'-r(CUUCCAGUUGCAUAGAGA)-5' RNA assessed as fluorescence quenching by spectrophotometry.
The subject of assay [8] is Nucleic Acid. In words: Binding affinity to 3'-r(CUUCCAGUUUCAUAGAGA)-5' RNA assessed as fluorescence quenching by spectrophotometry.

Molecules are shown by their SMILES. Active and inactive are the calls of the source. No cut-off for these calls is given here.

Take `Cc1cn([C@H]2C[C@H](OP(=O)(O)OC[C@H]3O[C@@H](n4ccc(N)nc4=O)C[C@@H]3OP(=O)(O)OC[C@H]3O[C@@H](n4cnc5c(N)ncnc54)C[C@@H]3OP(=O)(O)OC[C@H]3O[C@@H](n4cnc5c(N)ncnc54)C[C@@H]3OP(=O)(O)OC[C@H](Cn3cnc4cc5c(N)nc(N)nc5nc43)OP(=O)(O)OC[C@H]3O[C@@H](n4cnc5c(N)ncnc54)C[C@@H]3OP(=O)(O)OC[C@H]3O[C@@H](n4cnc5c(=O)[nH]c(N)nc54)C[C@@H]3OP(=O)(O)CC[C@H]3O[C@@H](n4cc(C)c(=O)[nH]c4=O)C[C@@H]3OP(=O)(O)OC[C@H]3O[C@@H](n4cnc5c(N)ncnc54)C[C@@H]3OP(=O)(O)OC[C@H]3O[C@@H](n4cc(C)c(=O)[nH]c4=O)C[C@@H]3OP(=O)(O)OC[C@H]3O[C@@H](n4ccc(N)nc4=O)C[C@@H]3OP(=O)(O)OC[C@H]3O[C@@H](n4cc(C)c(=O)[nH]c4=O)C[C@@H]3OP(=O)(O)OC[C@H]3O[C@@H](n4ccc(N)nc4=O)C[C@@H]3OP(=O)(O)OC[C@H]3O[C@@H](n4cc(C)c(=O)[nH]c4=O)C[C@@H]3O)[C@@H](COP(=O)(O)O[C@H]3C[C@H](n4cnc5c(=O)[nH]c(N)nc54)O[C@@H]3COP(=O)(O)O[C@H]3C[C@H](n4cnc5c(=O)[nH]c(N)nc54)O[C@@H]3COP(=O)(O)O[C@H]3C[C@H](n4cnc5c(N)ncnc54)O[C@@H]3COP(=O)(O)O[C@H]3C[C@H](n4cnc5c(N)ncnc54)O[C@@H]3COP(=O)(O)O[C@H]3C[C@H](n4cnc5c(=O)[nH]c(N)nc54)O[C@@H]3CO)O2)c(=O)nc1N`: the outcome with Nucleic Acid [1] and in the assay on Nucleic Acid [8] was inactive. Moreover, the outcome with Nucleic Acid [2], with Nucleic Acid [4] and in the assay with Nucleic Acid [7] was Active. Further, the ΔTm (as a rule, the change in melting temperature against a reference sample) was -3.5 °C with Nucleic Acid [3], -2.9 °C in the assay with Nucleic Acid [5] and -3.4 °C in the assay on Nucleic Acid [6].

On to `Cc1cn([C@H]2C[C@H](OP(=O)(O)OC[C@H]3O[C@@H](n4ccc(N)nc4=O)C[C@@H]3OP(=O)(O)OC[C@H]3O[C@@H](n4cnc5c(N)ncnc54)C[C@@H]3OP(=O)(O)OC[C@H]3O[C@@H](n4cnc5c(N)ncnc54)C[C@@H]3OP(=O)(O)OC[C@H](Cn3cnc4cc5c(N)nc(N)nc5nc43)OP(=O)(O)OC[C@H]3O[C@@H](n4ccc(N)nc4=O)C[C@@H]3OP(=O)(O)OC[C@H]3O[C@@H](n4cnc5c(=O)[nH]c(N)nc54)C[C@@H]3OP(=O)(O)CC[C@H]3O[C@@H](n4cc(C)c(=O)[nH]c4=O)C[C@@H]3OP(=O)(O)OC[C@H]3O[C@@H](n4cnc5c(N)ncnc54)C[C@@H]3OP(=O)(O)OC[C@H]3O[C@@H](n4cc(C)c(=O)[nH]c4=O)C[C@@H]3OP(=O)(O)OC[C@H]3O[C@@H](n4ccc(N)nc4=O)C[C@@H]3OP(=O)(O)OC[C@H]3O[C@@H](n4cc(C)c(=O)[nH]c4=O)C[C@@H]3OP(=O)(O)OC[C@H]3O[C@@H](n4ccc(N)nc4=O)C[C@@H]3OP(=O)(O)OC[C@H]3O[C@@H](n4cc(C)c(=O)[nH]c4=O)C[C@@H]3O)[C@@H](COP(=O)(O)O[C@H]3C[C@H](n4cnc5c(=O)[nH]c(N)nc54)O[C@@H]3COP(=O)(O)O[C@H]3C[C@H](n4cnc5c(=O)[nH]c(N)nc54)O[C@@H]3COP(=O)(O)O[C@H]3C[C@H](n4cnc5c(N)ncnc54)O[C@@H]3COP(=O)(O)O[C@H]3C[C@H](n4cnc5c(N)ncnc54)O[C@@H]3COP(=O)(O)O[C@H]3C[C@H](n4cnc5c(=O)[nH]c(N)nc54)O[C@@H]3CO)O2)c(=O)nc1N`, for which the ΔTm is -5.4 °C with Nucleic Acid [1], -6 °C in the assay on Nucleic Acid [3] and -6.5 °C in the assay with Nucleic Acid [6]. For the same compound, the outcome in the assay on Nucleic Acid [2], with Nucleic Acid [4] and in the assay with Nucleic Acid [8] was Active. The result with Nucleic Acid [5] and in the assay on Nucleic Acid [7] was inactive.

For `Cc1cn([C@H]2C[C@H](OP(=O)(O)OC[C@H]3O[C@@H](n4ccc(N)nc4=O)C[C@@H]3OP(=O)(O)OC[C@H]3O[C@@H](n4cnc5c(N)ncnc54)C[C@@H]3OP(=O)(O)OC[C@H]3O[C@@H](n4cnc5c(N)ncnc54)C[C@@H]3OP(=O)(O)OC[C@H]3O[C@@H](n4ccc(N)nc4=O)C[C@@H]3OP(=O)(O)OC[C@H](Cn3cnc4cc5c(N)nc(N)nc5nc43)OP(=O)(O)OC[C@H]3O[C@@H](n4cnc5c(=O)[nH]c(N)nc54)C[C@@H]3OP(=O)(O)CC[C@H]3O[C@@H](n4cc(C)c(=O)[nH]c4=O)C[C@@H]3OP(=O)(O)OC[C@H]3O[C@@H](n4cnc5c(N)ncnc54)C[C@@H]3OP(=O)(O)OC[C@H]3O[C@@H](n4cc(C)c(=O)[nH]c4=O)C[C@@H]3OP(=O)(O)OC[C@H]3O[C@@H](n4ccc(N)nc4=O)C[C@@H]3OP(=O)(O)OC[C@H]3O[C@@H](n4cc(C)c(=O)[nH]c4=O)C[C@@H]3OP(=O)(O)OC[C@H]3O[C@@H](n4ccc(N)nc4=O)C[C@@H]3OP(=O)(O)OC[C@H]3O[C@@H](n4cc(C)c(=O)[nH]c4=O)C[C@@H]3O)[C@@H](COP(=O)(O)O[C@H]3C[C@H](n4cnc5c(=O)[nH]c(N)nc54)O[C@@H]3COP(=O)(O)O[C@H]3C[C@H](n4cnc5c(=O)[nH]c(N)nc54)O[C@@H]3COP(=O)(O)O[C@H]3C[C@H](n4cnc5c(N)ncnc54)O[C@@H]3COP(=O)(O)O[C@H]3C[C@H](n4cnc5c(N)ncnc54)O[C@@H]3COP(=O)(O)O[C@H]3C[C@H](n4cnc5c(=O)[nH]c(N)nc54)O[C@@H]3CO)O2)c(=O)nc1N`, the figures for the ΔTm with Nucleic Acid [1], in the assay on Nucleic Acid [3] and with Nucleic Acid [6] were -1.1 °C, -3.9 °C and -3.2 °C, respectively. For the same compound, the outcome in the assay on Nucleic Acid [2], in the assay with Nucleic Acid [4] and with Nucleic Acid [8] was Active. In addition, the result in the assay with Nucleic Acid [5] and in the assay with Nucleic Acid [7] was inactive.

With `Cc1cn([C@H]2C[C@H](OP(=O)(O)OC[C@H]3O[C@@H](n4ccc(N)nc4=O)C[C@@H]3OP(=O)(O)OC[C@H]3O[C@@H](n4cnc5c(N)ncnc54)C[C@@H]3OP(=O)(O)OC[C@H]3O[C@@H](n4cnc5c(N)ncnc54)C[C@@H]3OP(=O)(O)OC[C@H]3O[C@@H](n4cnc5c(=O)[nH]c(N)nc54)C[C@@H]3OP(=O)(O)OC[C@H](Cn3cnc4cc5c(N)nc(N)nc5nc43)OP(=O)(O)OC[C@H]3O[C@@H](n4cnc5c(=O)[nH]c(N)nc54)C[C@@H]3OP(=O)(O)CC[C@H]3O[C@@H](n4cc(C)c(=O)[nH]c4=O)C[C@@H]3OP(=O)(O)OC[C@H]3O[C@@H](n4cnc5c(N)ncnc54)C[C@@H]3OP(=O)(O)OC[C@H]3O[C@@H](n4cc(C)c(=O)[nH]c4=O)C[C@@H]3OP(=O)(O)OC[C@H]3O[C@@H](n4ccc(N)nc4=O)C[C@@H]3OP(=O)(O)OC[C@H]3O[C@@H](n4cc(C)c(=O)[nH]c4=O)C[C@@H]3OP(=O)(O)OC[C@H]3O[C@@H](n4ccc(N)nc4=O)C[C@@H]3OP(=O)(O)OC[C@H]3O[C@@H](n4cc(C)c(=O)[nH]c4=O)C[C@@H]3O)[C@@H](COP(=O)(O)O[C@H]3C[C@H](n4cnc5c(=O)[nH]c(N)nc54)O[C@@H]3COP(=O)(O)O[C@H]3C[C@H](n4cnc5c(=O)[nH]c(N)nc54)O[C@@H]3COP(=O)(O)O[C@H]3C[C@H](n4cnc5c(N)ncnc54)O[C@@H]3COP(=O)(O)O[C@H]3C[C@H](n4cnc5c(N)ncnc54)O[C@@H]3COP(=O)(O)O[C@H]3C[C@H](n4cnc5c(=O)[nH]c(N)nc54)O[C@@H]3CO)O2)c(=O)nc1N`, the ΔTm in the assay with Nucleic Acid [1] is -2.9 °C; in the assay with Nucleic Acid [3], -3.1 °C; in the assay with Nucleic Acid [5], -3 °C. For the same compound, the outcome in the assay with Nucleic Acid [2] and with Nucleic Acid [6] was inactive. Besides, the outcome in the assay on Nucleic Acid [4], in the assay with Nucleic Acid [7] and in the assay on Nucleic Acid [8] was Active.

As to `Cc1cn([C@H]2C[C@H](OP(=O)(O)OC[C@H]3O[C@@H](n4ccc(N)nc4=O)C[C@@H]3OP(=O)(O)OC[C@H]3O[C@@H](n4cnc5c(N)ncnc54)C[C@@H]3OP(=O)(O)OC[C@H]3O[C@@H](n4cnc5c(N)ncnc54)C[C@@H]3OP(=O)(O)OC[C@H]3O[C@@H](n4cnc5c(N)ncnc54)C[C@@H]3OP(=O)(O)OC[C@H](Cn3cnc4cc5c(N)nc(N)nc5nc43)OP(=O)(O)OC[C@H]3O[C@@H](n4cnc5c(=O)[nH]c(N)nc54)C[C@@H]3OP(=O)(O)CC[C@H]3O[C@@H](n4cc(C)c(=O)[nH]c4=O)C[C@@H]3OP(=O)(O)OC[C@H]3O[C@@H](n4cnc5c(N)ncnc54)C[C@@H]3OP(=O)(O)OC[C@H]3O[C@@H](n4cc(C)c(=O)[nH]c4=O)C[C@@H]3OP(=O)(O)OC[C@H]3O[C@@H](n4ccc(N)nc4=O)C[C@@H]3OP(=O)(O)OC[C@H]3O[C@@H](n4cc(C)c(=O)[nH]c4=O)C[C@@H]3OP(=O)(O)OC[C@H]3O[C@@H](n4ccc(N)nc4=O)C[C@@H]3OP(=O)(O)OC[C@H]3O[C@@H](n4cc(C)c(=O)[nH]c4=O)C[C@@H]3O)[C@@H](COP(=O)(O)O[C@H]3C[C@H](n4cnc5c(=O)[nH]c(N)nc54)O[C@@H]3COP(=O)(O)O[C@H]3C[C@H](n4cnc5c(=O)[nH]c(N)nc54)O[C@@H]3COP(=O)(O)O[C@H]3C[C@H](n4cnc5c(N)ncnc54)O[C@@H]3COP(=O)(O)O[C@H]3C[C@H](n4cnc5c(N)ncnc54)O[C@@H]3COP(=O)(O)O[C@H]3C[C@H](n4cnc5c(=O)[nH]c(N)nc54)O[C@@H]3CO)O2)c(=O)nc1N`, the result in the assay on Nucleic Acid [1] and in the assay with Nucleic Acid [8] was inactive. In addition, the result with Nucleic Acid [2], in the assay on Nucleic Acid [4] and in the assay on Nucleic Acid [7] was Active. Also, the ΔTm with Nucleic Acid [3] is -2.3 °C; in the assay with Nucleic Acid [5], -2.1 °C; in the assay with Nucleic Acid [6], -2 °C.
